The structures appear in SMILES notation.

The target in series [1] is T1, PTP1B (GST-PTP1B) (Homo sapiens, UniProt P18031).
T1 sequence (P18031 1-435): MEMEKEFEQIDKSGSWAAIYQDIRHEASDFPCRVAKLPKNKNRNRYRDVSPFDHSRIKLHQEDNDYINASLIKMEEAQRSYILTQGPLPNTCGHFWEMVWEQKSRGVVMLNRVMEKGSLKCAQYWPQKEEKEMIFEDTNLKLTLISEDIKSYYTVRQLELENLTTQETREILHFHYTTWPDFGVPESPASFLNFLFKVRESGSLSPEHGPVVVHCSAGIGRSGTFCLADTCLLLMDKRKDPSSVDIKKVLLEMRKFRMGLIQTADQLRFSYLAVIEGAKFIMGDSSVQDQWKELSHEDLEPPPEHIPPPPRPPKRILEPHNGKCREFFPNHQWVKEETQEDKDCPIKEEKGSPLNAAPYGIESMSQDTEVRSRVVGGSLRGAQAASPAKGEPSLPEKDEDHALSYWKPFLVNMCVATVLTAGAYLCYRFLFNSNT
Put plainly: PTP1B inhibition, colorimetric pNPP assay. It is filed as biochemical. As to conditions: for inhibition at 20 µg/mL: PTP1B, compound at 20 μg/mL; for inhibition at 20 µg/mL / IC50: pNPP substrate; for PTP1B inhibitory activity (in words): pNPP assay, tested at 20 μg/mL; for IC50: means ± SD of three replications, OA/PC = oleanolic acid positive control.

By inhibition is commonly meant the drop in the measured response relative to a control, in per cent. On to `O=C(O)CCC(=O)Nc1ccc(C2Nc3cccc4cccc(c34)N2)cc1` [Compound 32], for which, in series [1], testing at 20 µg/mL gave an inhibition of 29.9% and the “PTP1B inhibitory activity (in words)” value was “no activity”.
The term melting point denotes the temperature, or range, at which the solid turns liquid. As a reminder, the IC50 is the concentration at which inhibition is half-maximal. High values mean weaker potency, low ones greater potency. For `O=C(O)COc1ccc(C2Nc3cccc4cccc(c34)N2)cc1` [Compound 23, 2-[4-(2,3-Dihydro-1H-perimidin-2-yl)phenoxy]acetic acid], the melting point was above 265 °C. In series [1], this compound registered an inhibition at 20 µg/mL of 98.4% and an IC50 of 5.88 ± 0.25 µM.
`O=C(O)CCCNC(=O)c1ccc(C2Nc3cccc4cccc(c34)N2)cc1` [Compound 17, 4-(4-(2,3-Dihydro-1H-perimidin-2-yl)benzamido)butanoic acid]: the melting point fell in the range of 99.7 to 103.3 °C. In series [1], this compound gave an inhibition at 20 µg/mL of 73.1% and an IC50 of 22.2 ± 1.6 µM.
`CCOC(=O)C(=O)Nc1ccc(C2Nc3cccc4cccc(c34)N2)cc1` [Compound 26, Ethyl 2-{[4-(2,3-dihydro-1H-perimidin-2-yl)phenyl]amino}-2-oxoacetate]: the melting point fell in the range of 132.3 to 135.5 °C. Further, in series [1], the inhibition at 20 µg/mL was 91.8% and the IC50 came out at 1.27 ± 0.06 µM.
Compound `COC(=O)C1CCCN1C(=O)c1ccc(C2Nc3cccc4cccc(c34)N2)cc1` (stereo not drawn) [Compound 10, Methyl 1-(4-(2,3-dihydro-1H-perimidin-2-yl)benzoyl)pyrrolidine-2-carboxylate] returned a melting point of 171.3 to 176 °C. In series [1], this compound returned an inhibition at 20 µg/mL of 26.2%.
`O=C(O)CNC(=O)c1ccc(C2Nc3cccc4cccc(c34)N2)cc1` [Compound 16] gave a melting point of 85.4 to 90.3 °C. Further, in series [1], testing at 20 µg/mL gave an inhibition of 90% and half-maximal inhibition (IC50) was put at 27.8 ± 5.45 µM.
As to `NCCC(=O)Nc1ccc(C2Nc3cccc4cccc(c34)N2)cc1` [Compound 35], the melting point was 239.7 to 241.2 °C. In series [1], the inhibition at 20 µg/mL stood at 0.29% and the “PTP1B inhibitory activity (in words)” value is given as “no inhibitory activity”.
In turn, `CCOC(=O)CCCCNC(=O)c1ccc(C2Nc3cccc4cccc(c34)N2)cc1` [Compound 13, Ethyl 5-(4-(2,3-dihydro-1H-perimidin-2-yl)benzamido)pentanoate] yielded a melting point of 141.8 to 143.1 °C. The compound further returned an inhibition at 20 µg/mL in series [1] of 28.5%.
The corresponding values for `CCOC(=O)CC(=O)Nc1ccc(C2Nc3cccc4cccc(c34)N2)cc1` [Compound 27, Ethyl 3-{[4-(2,3-dihydro-1H-perimidin-2-yl)phenyl]amino}-3-oxopropanoate] are 158.2 to 160.7 °C and 1.68%.
As to `O=C(O)CCCCNC(=O)c1ccc(C2Nc3cccc4cccc(c34)N2)cc1` [Compound 18, 5-(4-(2,3-Dihydro-1H-perimidin-2-yl)benzamido)pentanoic acid], the melting point lay within 102.8 to 107.4 °C. In series [1], this compound displayed an inhibition at 20 µg/mL of 94.8% and a half-inhibitory concentration (IC50) of 5.53 ± 0.54 µM.
As for `COC(=O)CCCNC(=O)c1ccc(C2Nc3cccc4cccc(c34)N2)nc1` [Compound 43, Methyl 4-[6-(2,3-dihydro-1H-perimidin-2-yl)nicotinamido]butanoate], the melting point is 100.1 to 105.4 °C. In series [1], this compound registered an inhibition at 20 µg/mL of 4.67%.
As to `O=C(O)CCCCNC(=O)c1ccc(C2Nc3cccc4cccc(c34)N2)nc1` [Compound 48, 5-[6-(2,3-Dihydro-1H-perimidin-2-yl)nicotinamido]pentanoic acid], the melting point was in the range of 117.1 to 120.3 °C. In series [1], this compound registered an inhibition at 20 µg/mL of 91.5% and an IC50 of 3.56 ± 0.13 µM.
The corresponding values for `O=C(O)CCCC(=O)Nc1ccc(C2Nc3cccc4cccc(c34)N2)cc1` [Compound 33, 5-{[4-(2,3-Dihydro-1H-perimidin-2-yl)phenyl]amino}-5-oxopentanoic acid] are above 265 °C, 95.1% and 6.91 ± 1.17 µM.
Take `CCOC(=O)CCCOc1ccc(C2Nc3cccc4cccc(c34)N2)cc1` [Compound 21]: the melting point was in the range of 76.2 to 78.6 °C. For the same compound, in series [1], testing at 20 µg/mL gave an inhibition of 7.45% and the “PTP1B inhibitory activity (in words)” value was “did not show inhibitory activity”.
In series [1], `Brc1ccccc1C1Nc2cccc3cccc(c23)N1` [Compound 4, 2-(2-Bromophenyl)-2,3-dihydro-1H-perimidine] registered an inhibition at 20 µg/mL of 17.5%.
`O=C(O)CCCOc1ccc(C2Nc3cccc4cccc(c34)N2)cc1` [Compound 24] had a melting point of 126.3 to 130.9 °C. For the same compound, in series [1], the inhibition at 20 µg/mL was determined as 10.5% and the “PTP1B inhibitory activity (in words)” value is given as “no inhibitory activity”.
In turn, `COC(=O)c1ccc(C2Nc3cccc4cccc(c34)N2)nc1` [Compound 40] yielded an inhibition at 20 µg/mL in series [1] of 6.4%.
`O=C(O)c1ccc(C2Nc3cccc4cccc(c34)N2)nc1` [Compound 41] registered a melting point of 100.7 to 101.3 °C. In series [1], testing at 20 µg/mL gave an inhibition of 96.6% and the IC50 amounted to 10.8 ± 0.69 µM.
`COC(=O)CNC(=O)c1ccc(C2Nc3cccc4cccc(c34)N2)nc1` [Compound 42] showed a melting point of 183.6 to 184.7 °C. In series [1], this compound came in with an inhibition at 20 µg/mL of 42.1%.
Compound `Brc1ccc(C2Nc3cccc4cccc(c34)N2)cc1` [Compound 2] displayed an inhibition at 20 µg/mL in series [1] of 37%.
As to `Brc1cccc(C2Nc3cccc4cccc(c34)N2)c1` [Compound 3, 2-(3-Bromophenyl)-2,3-dihydro-1H-perimidine], the melting point was 161.7 to 163.3 °C. Moreover, in series [1], 20 µg/mL produced 42.5% inhibition.
For `COC(=O)CNC(=O)c1ccc(C2Nc3cccc4cccc(c34)N2)cc1` [Compound 11] the same measures were 193.3 to 198.7 °C and 4.81%.
Turning to `O=C(O)CCCNC(=O)c1ccc(C2Nc3cccc4cccc(c34)N2)nc1` [Compound 47, 4-[6-(2,3-Dihydro-1H-perimidin-2-yl)nicotinamido]butanoic acid], the melting point is 95.3 to 99 °C. In series [1], this compound returned an inhibition at 20 µg/mL of 98.5% and an IC50 of 15.2 ± 1.41 µM.
In turn, `CCOC(=O)CCCNC(=O)c1ccc(C2Nc3cccc4cccc(c34)N2)cc1` [Compound 12, Ethyl 4-(4-(2,3-dihydro-1H-perimidin-2-yl)benzamido)butanoate] showed a melting point of 128.6 to 132.5 °C. In series [1], this compound returned an inhibition at 20 µg/mL of 6.83%.
As for `O=C(O)C(=O)Nc1ccc(C2Nc3cccc4cccc(c34)N2)cc1` [Compound 30, 2-{[4-(2,3-Dihydro-1H-perimidin-2-yl)phenyl]amino}-2-oxoacetic acid], the melting point was above 265 °C. In addition, in series [1], the inhibition at 20 µg/mL turned out to be 0.51% and the “PTP1B inhibitory activity (in words)” value is recorded as “no activity”.
With `CCOC(=O)CCCCNC(=O)c1ccc(C2Nc3cccc4cccc(c34)N2)nc1` [Compound 44, Ethyl 5-[6-(2,3-dihydro-1H-perimidin-2-yl)nicotinamido]pentanoate], the melting point fell in the range of 109.4 to 113.5 °C. This compound had an inhibition at 20 µg/mL in series [1] of 4.74%.
The corresponding values for `Nc1ccc(C2Nc3cccc4cccc(c34)N2)cc1` [Compound 8] are 166.4 to 171.9 °C and 23.8%.
Take `Oc1ccc(C2Nc3cccc4cccc(c34)N2)cc1` [Compound 5, 4-(2,3-Dihydro-1H-perimidin-2-yl)phenol]: the inhibition at 20 µg/mL in series [1] was determined as 7.18%.
The same measure, in the same setting: with `COC(=O)c1ccc(C2Nc3cccc4cccc(c34)N2)cc1` [Compound 9] the figure was 15.3%.
